Measured values reported in patent publication US10259810B2, “N-sulfonylated pyrazolo[3,4-b]pyridin-6-carboxamides and method of use” (AbbVie S.à.r.l., priority 2015, dated 2019).
pEC50: −log10 of the molar value.

Tests used:
Type in all cases: cell-based
ΔF508-CFTR [1] = target: T1, ΔF508-CFTR (Homo sapiens, UniProt P13569, DEL508-508); test: CFTR cell surface levels using HRP-tagged ΔF508-CFTR expressing CFBE cells, in the presence of a co-corrector; conditions: HRP-tagged ΔF508-CFTR CFBE cells, in the presence of 3 μM co-corrector; for pEC50: read-out: EC50
T1 construct: host or cells: CFBE41o-, doxycycline-inducible
How it was run: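 Chemiluminescent read-out of surface HRP (15 min, dark) after PBS washes. Activity is normalized as 100×(sample−DMSO)/(3 μM co-corrector alone−DMSO).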

ΔF508-CFTR [2] = target: T1, ΔF508-CFTR; test: CFTR cell surface levels using HRP-tagged ΔF508-CFTR expressing CFBE cells, intrinsic corrector capacity; set-up: % Activation: concentration or dose not given beside the values; conditions: HRP-tagged ΔF508-CFTR expressing CFBE41o- cells, compound alone (intrinsic corrector capacity), 20 hours at 33° C.; for pEC50: read-out: EC50
How it was run: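 Read-out: chemiluminescent HRP activity of ECL4-HRP-tagged ΔF508-CFTR at the cell surface, 15 min substrate in dark. Normalized as 100×(sample−DMSO)/(positive control−DMSO).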

CFTR ΔF508 = target: T2, CFTR ΔF508 (Homo sapiens, UniProt P13569, DEL508-508); test: Chronic TECC assay, primary bronchial epithelial cells of CF patients homozygous for CFTR ΔF508 (corrector, co-corrector and potentiator); conditions: chronic TECC, AUC = full area under the curve upon forskolin stimulation; for % Activity at 1 μM (AUC**): test compound at 1 μM; for EC50: read-out: EC50 (nM) (AUC**)
T2 construct: bronchial epithelial cells isolated from CF patients homozygous for the CFTR ΔF508 mutation; McGill University; Asterand; University of North Carolina hAEC-CF; host or cells: primary human bronchial epithelial cells from CF patients homozygous for ΔF508, differentiated at air-liquid interface
How it was run: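 Primary bronchial epithelial cells from ΔF508-homozygous CF patients on collagen IV-coated Transwells were chronically treated with test compound plus corrector and potentiator, which were re-added before recording. Ieq was derived from PD and Rt in NaCl-Ringer, pH 7.4, at 37° C, with apical amiloride and bilateral forskolin, recorded every 2 min over 20 min. Ieq increase was normalized to controls, and EC50 was taken from per-well concentrations.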

T2 sequence (P13569 with tags, fused parts or gaps DEL508-508): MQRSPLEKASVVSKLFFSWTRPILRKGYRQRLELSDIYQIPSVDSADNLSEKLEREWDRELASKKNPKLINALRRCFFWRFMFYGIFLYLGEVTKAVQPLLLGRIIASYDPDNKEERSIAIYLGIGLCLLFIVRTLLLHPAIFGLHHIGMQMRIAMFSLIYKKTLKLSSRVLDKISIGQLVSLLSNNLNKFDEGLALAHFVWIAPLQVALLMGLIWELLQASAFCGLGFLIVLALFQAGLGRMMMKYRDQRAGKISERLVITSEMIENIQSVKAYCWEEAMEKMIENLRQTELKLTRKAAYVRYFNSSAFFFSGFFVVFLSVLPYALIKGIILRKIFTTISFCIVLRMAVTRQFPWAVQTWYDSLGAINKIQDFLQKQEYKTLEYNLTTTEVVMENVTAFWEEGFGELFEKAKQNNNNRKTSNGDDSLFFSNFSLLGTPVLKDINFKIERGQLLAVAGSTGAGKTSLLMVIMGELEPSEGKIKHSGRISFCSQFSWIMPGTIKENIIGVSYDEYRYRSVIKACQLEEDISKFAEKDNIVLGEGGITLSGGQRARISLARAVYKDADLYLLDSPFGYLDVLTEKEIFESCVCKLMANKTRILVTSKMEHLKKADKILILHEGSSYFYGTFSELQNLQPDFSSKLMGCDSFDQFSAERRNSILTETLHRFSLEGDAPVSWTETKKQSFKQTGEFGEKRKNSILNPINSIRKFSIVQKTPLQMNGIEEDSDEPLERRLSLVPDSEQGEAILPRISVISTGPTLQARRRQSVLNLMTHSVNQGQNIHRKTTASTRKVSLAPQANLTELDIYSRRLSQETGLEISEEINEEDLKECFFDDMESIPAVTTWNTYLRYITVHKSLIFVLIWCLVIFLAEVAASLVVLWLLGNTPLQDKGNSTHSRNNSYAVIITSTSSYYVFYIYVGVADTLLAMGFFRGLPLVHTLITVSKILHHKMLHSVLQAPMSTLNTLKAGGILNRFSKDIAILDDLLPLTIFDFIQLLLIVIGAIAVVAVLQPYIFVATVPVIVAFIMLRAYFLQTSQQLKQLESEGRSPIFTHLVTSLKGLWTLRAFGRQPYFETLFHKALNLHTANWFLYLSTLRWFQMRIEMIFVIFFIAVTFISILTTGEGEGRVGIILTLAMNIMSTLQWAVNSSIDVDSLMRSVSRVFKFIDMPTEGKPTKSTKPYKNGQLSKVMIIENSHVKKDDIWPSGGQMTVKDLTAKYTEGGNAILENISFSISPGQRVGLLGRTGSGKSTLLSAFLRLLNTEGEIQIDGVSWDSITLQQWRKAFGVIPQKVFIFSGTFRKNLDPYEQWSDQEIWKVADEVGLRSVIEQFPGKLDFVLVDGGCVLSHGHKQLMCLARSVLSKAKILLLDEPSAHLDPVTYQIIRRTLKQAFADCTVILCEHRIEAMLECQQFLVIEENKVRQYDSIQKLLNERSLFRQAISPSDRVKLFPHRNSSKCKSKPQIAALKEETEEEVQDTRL
T1 sequence (P13569 with tags, fused parts or gaps DEL508-508): as above

| SMILES | % Activation (ΔF508-CFTR [1]) | pEC50 (ΔF508-CFTR [1]) | % Activation (ΔF508-CFTR [2]) | pEC50 (ΔF508-CFTR [2]) | % Activity at 1 μM (AUC**) (CFTR ΔF508) | EC50 (CFTR ΔF508) |
| --- | --- | --- | --- | --- | --- | --- |
| CS(=O)(=O)NC(=O)c1cc(OCCC2CCOCC2)c2c(C3CCC3)nn(-c3ccccc3)c2n1 [Compound 198, 3-cyclobutyl-N-(methanesulfonyl)-4-[2-(oxan-4-yl)ethoxy]-1-phenyl-1H-pyrazolo[3,4-b]pyridine-6-carboxamide] | 321.57% | 6.33 | 135.73% | 6.20 | 477.39% | – |
| CS(=O)(=O)NC(=O)c1cc(OC[C@@H](F)C2CCOCC2)c2c(C3CCC3)nn(-c3ccccc3)c2n1 [Compound 199, 3-cyclobutyl-4-[(2S)-2-fluoro-2-(oxan-4-yl)ethoxy]-N-(methanesulfonyl)-1-phenyl-1H-pyrazolo[3,4-b]pyridine-6-carboxamide] | 304.63% | 6.50 | 142.6% | 6.32 | 627.48% | > 1000 nM |
| CS(=O)(=O)NC(=O)c1cc(OCC2CCOCC2)c2c(C3CCC3)nn(-c3ccccc3)c2n1 [Compound 200, 3-cyclobutyl-N-(methanesulfonyl)-4-[(oxan-4-yl)methoxy]-1-phenyl-1H-pyrazolo[3,4-b]pyridine-6-carboxamide] | 318.27% | 7.02 | 163.43% | 6.50 | 364.3% | – |
| CS(=O)(=O)NC(=O)c1cc(-c2ccc(N3CCC(C#N)CC3)nc2)c2c(C3CCC3)nn(-c3ccnc(N4CCOCC4)c3)c2n1 [Compound 201, 4-[6-(4-cyanopiperidin-1-yl)pyridin-3-yl]-3-cyclobutyl-N-(methanesulfonyl)-1-[2-(morpholin-4-yl)pyridin-4-yl]-1H-pyrazolo[3,4-b]pyridine-6-carboxamide] | 379.9% | 6.53 | 200.8% | 6.40 | 250% | < 300 nM |
| COC1CCN(c2cc(C(=O)NS(=O)(=O)C3CCOCC3)nc3c2c(C2CCC2)nn3-c2ccccc2)CC1 [Compound 207, 3-cyclobutyl-4-(4-methoxypiperidin-1-yl)-N-(oxane-4-sulfonyl)-1-phenyl-1H-pyrazolo[3,4-b]pyridine-6-carboxamide] | 284.87% | 6.76 | 141.93% | 6.47 | 441.31% | – |
| COC(=O)N1CCC2CN(c3cc(C(=O)NS(C)(=O)=O)nc4c3c(C3CCC3)nn4-c3ccccc3)CCC21 (centres unmarked) [Compound 215, methyl 5-{3-cyclobutyl-6-[(methanesulfonyl)carbamoyl]-1-phenyl-1H-pyrazolo[3,4-b]pyridin-4-yl}octahydro-1H-pyrrolo[3,2-c]pyridine-1-carboxylate] | 569.35% | 7.32 | 374.57% | 6.56 | 320% | 45 nM |
| CN(C)C[C@@H](F)C1CCN(c2cc(C(=O)NS(C)(=O)=O)nc3c2c(C2CCC2)nn3-c2ccccc2)CC1 [Compound 219, 3-cyclobutyl-4-{4-[(1S)-2-(dimethylamino)-1-fluoroethyl]piperidin-1-yl}-N-(methanesulfonyl)-1-phenyl-1H-pyrazolo[3,4-b]pyridine-6-carboxamide] | 524.4% | 6.64 | 381.1% | 6.12 | 298.20% | – |
| COC(C)(C)C1CCN(c2cc(C(=O)NS(C)(=O)=O)nc3c2c(C(C)C)nn3-c2ccc(F)cc2)CC1 [Compound 221, 1-(4-fluorophenyl)-N-(methanesulfonyl)-4-[4-(2-methoxypropan-2-yl)piperidin-1-yl]-3-(propan-2-yl)-1H-pyrazolo[3,4-b]pyridine-6-carboxamide] | 492.2% | 7.11 | 322.15% | 6.38 | 245.9% | 40 nM |
